Conditions: 101.33 kPa, Liquid, Vibrating tube method

CCCCn1cc[n+](C)c1.F[P-](F)(F)(F)(F)F [1-butyl-3-methylimidazolium hexafluorophosphate]
Conditions | mass density [kg/m3]
283.15 K | 1380.2
293.15 K | 1372
303.15 K | 1362.6
313.15 K | 1354.1
323.15 K | 1345.7
333.15 K | 1339.1
343.15 K | 1331.7
353.15 K | 1323.4
363.15 K | 1314.2
